Measurements taken from ChEMBL document CHEMBL1154895, “Cytotoxic neoclerodane diterpenoids from Scutellaria barbata” (J Nat Prod, 2010).
pIC50: −log10 of the molar value.

Test system: SK-BR-3
Test: Cytotoxicity against human SK-BR-3 cells after 48 hrs by MTT assay
Type: functional, cell-based
Settings: SK-BR-3, 48 h

CC(=O)O[C@@H](CC1=C(O)C(=O)OC1)[C@]1(C)[C@H]2CCC=C(C)[C@]2(C)[C@@H](OC(=O)c2ccccc2)[C@H](OC(=O)c2ccccc2)[C@]1(C)O (mixture of isomers) [SCUTEBATA A]
pIC50: 4.82
